Patent US11649228B2, “Zinc indicators for cellular imaging” (The Board of Regents of the University of Texas System, priority 2018, dated 2023)

Key:
[1] = Photochemical characterization of ZIGIRs in vitro (absorption, emission, quantum yield); type: physicochemical; conditions: for ε (extinction coefficient): in M-1·cm-1 (unit assumed); for ϕfl × ε (fluorescence brightness): in M^-1 cm^-1 (unit assumed)
Description: UV-Vis spectra were recorded in a 1-cm path quartz cell on a Shimadzu 2401 PC spectrometer. Fluorescence excitation and emission spectra were recorded on a Fluorolog 3 spectrometer (Jobin-Yvon Horiba, Edison, N.J.). Zinc titration was performed by adding ZIGIRs (0.5 μM final concentration) to buffered Zn^2+ solutions containing 100 mM HEPES (pH 7.4). Nitrilotriacetic acid (NTA, 10 mM) and varying concentrations of ZnSO4 (0-9 mM) were mixed to reach free Zn^2+ concentrations between 0.1 nM and 40 nM (Li et al., 2011). Zn^2+ concentrations above 40 nM were controlled by iminodiacetate (IDA, 10 mM) and varying amounts of ZnSO4 (0-9.7 mM) in 100 mM HEPES (pH 7.4; Sasaki et al., 2011). To determine Zn^2+ binding dissociation constants (Kd(Zn^2+)), the Zn^2+ titration data were fitted to the least square exponential equation (Prism 7). Fluorescence quantum yields of ZIGIRs at pH 7.5 were determined using rhodamine 6G as the reference (Φfl=0.94 in MeOH; Magde et al., 2002). An example in shown FIGS. 11A0B. To examine the pH sensitivity of ZIGIRs, the fluorescence emission spectra was recorded from pH 3-9.4 in either nominally Zn^2+-free solutions containing 5 mM iminodiacetate or in 25 μM ZnSO4 solutions. The pH was controlled with 10 mM pH buffers including chloroacetic acid (pH 3.1), acetate (pH 4.1 and 5.0), 2-morpholinoethanesulfonic acid (MES, pH 6.14), HEPES (pH 7.5) and N-cyclohexyl-2-aminoethanesulfonic acid (CHES, pH 9.4).

MIN-6 cells = assay: Correlation of ZIGIR-2 labeling with insulin immunofluorescence; type: cell-based, mouse; conditions: wide-field microscopy
Description: Confocal imaging of ZIGIR-2 labeled MIN-6 cells appeared to be heterogenous, with numerous ZIGIR-2 positive puncta in some cells while few in others (FIG. 6B). The MIN-6 cell is a transformed β-cell line derived from a mouse insulinoma. […] To investigate how ZIGIR-2 staining correlates with the distribution of insulin granules, insulin immunofluorescence was performed on the same MIN-6 cells after ZIGIR-2 imaging. […] To further analyze MIN-6 cells that were differentially labeled with ZIGIR-2, and to address whether ZIGIR-2 staining correlated with other cellular organelles, MIN6 cells were separated into ZIGIR-2-High and ZIGIR-2-Low subsets based on ZIGIR-2 fluorescence intensity using fluorescence-activated cell sorting (FACS; FIG. 7E). The sorted cells were then compared by immunofluorescence using antibodies against insulin, NPC-1 (a marker protein of late endosome/lysosome; Patel et al., 1999 and Higgins et al., 1999), or GM130 (a Golgi marker protein; Nakamura et al., 1995). […]
To correlate the intensity of ZIGIR-2 labeling and cellular insulin content by imaging, MIN-6 cells were first labeled and seeded on a 35 mm MatTek glass dish with ZIGIR-2. Cells were then imaged on a wide field fluorescence microscope (Axiovert 200, Carl Zeiss) equipped with an EMCCD camera (iXon 897, Andor) through a 40× oil objective. […]

- absorption maximum [1]: around 555 nm
- emission maximum [1]: ~580 nm
- λabd^max ([1]; Zn^2+ bound): 549 nm
- λem^max ([1]; Zn^2+ bound): 580 nm
- ϕfl (fluorescence quantum yield) ([1]; Zn^2+ bound): 0.26
- ε (extinction coefficient) ([1]; Zn^2+ bound): 93,600
- ϕfl × ε (fluorescence brightness) ([1]; Zn^2+ bound): 24,336
- λabd^max ([1]; Zn^2+ free): 546 nm
- λem^max ([1]; Zn^2+ free): 572 nm
- ϕfl (fluorescence quantum yield) ([1]; Zn^2+ free): 0.008
- ε (extinction coefficient) ([1]; Zn^2+ free): 88,400
- ϕfl × ε (fluorescence brightness) ([1]; Zn^2+ free): 707
SMILES: CN(C)c1ccc2c(-c3ccc(NCCN(CCc4ccccn4)Cc4ccccn4)cc3C(=O)[O-])c3ccc(=[N+](C)C)cc-3oc2c1 [ZIGIR-2]
- Pearson's R value of cellular ZIGIR-2 intensity versus insulin immunofluorescence (MIN-6 cells): 0.79±0.05
